This note sets out measurements from patent US20230035892A1, “METHODS AND COMPOSITIONS FOR TREATING CANCER” (Flagship Pioneering Innovations V, Inc., priority 2019, published 2023).

What all share (type): cell-based
Series [1] relates to PAXF1657 control empty vector. The series is described as follows: 7-day CellTiter-Glo anti-proliferative assay. The settings on record: for Emax: 168 h, read-out: Maximum % Growth inhibition relative to DMSO, geometric mean; for GI50: read-out: GI50, geometric mean. Here is the method:
(§1) Cell lines were seeded into tissue culture treated, white-walled, 96-well plates at a density of 500 cells/well in RPM11640 media supplemented with 10% H.I. FBS and penicillin/streptomycin. Plates were incubated overnight at 37° C., 5% CO2 to allow cells to adhere to the wells. GRK2 small molecule antagonists were added to the cells using a ten-point or five-point dilution series with a final concentration ranging from […] in 0.1% DMSO. At the time of compound addition, a set of plates that were not treated with compounds were collected and cell viability was measured using CellTiter-Glo (Promega). CellTiter-Glo reagent was added to the plates and luminescence was measured using a Biotek Synergy plate reader. The compound treated cells were incubated for 3 days at 37° C., 5% CO2. The media was then aspirated from each well and replaced with fresh media containing GRK2 small molecule antagonists. The compound treated cells were then incubated for another 4 days at 37° C., 5% CO2 and cell viability was assessed at the end of the 7-day compound treatment by CellTiterGlo.
(In general: In ATP-based viability assays light output follows the ATP content of the culture.)

Series [2] has as its system PAXF1657 stably overexpressing GRK2 cDNA. The series is described as follows: 7-day CellTiter-Glo anti-proliferative assay. As to conditions: PAXF1657, sgNTC, pReceiver-GRK2, 5 or 10 point dose curve; for Emax: 168 h, read-out: Maximum % Growth inhibition relative to DMSO, geometric mean; for GI50: read-out: GI50, geometric mean. The method, then: as §1
Series [3] deals with Grk2 protein. Nature of the series: Western Blot of Grk2 levels after doxycycline-induced sgRNA expression. As to conditions: PAXF1657, day 7, +dox. Here is the method:
To validate the findings from the CRISPR screen, Cas9-expressing pancreatic cell lines were generated that express doxycycline inducible sgRNAs targeting GRK2. Treatment of these cells with 100 ng/ml doxycycline for 3, 7 or 10 days induced a time-dependent depletion of Grk2 protein, confirming the on-target efficacy of the sgRNAs.

In a further series the test system is PAXF1657. The series is described as follows: RFP/GFP competition assay, doxycycline-induced GRK2 knockout. Here is the method:
(§2) Next, experiments were performed to evaluate whether GRK2 knockout induced by doxycycline treatment results in a proliferation defect in pancreatic cancer cells. Pancreatic cancer cell lines expressing GRK2 sgRNAs as well as RFP were plated in a ratio of 1:1 with GFP expressing pancreatic cancer cells. Co-plated cells were cultured in the presence or absence of 100 ng/ml doxycycline over the course of 21 days, and the percentage of GFP and RFP-expressing cells was measured over time.

The test system of series [4] is Grk2 protein. Nature of the series: Western Blot of Grk2 levels in PAXF1657 lines re-expressing cleavage-resistant Grk2 wild-type or kinase-dead cDNA. As to conditions: PAXF1657 expressing the sgRNA, cDNA Empty vector; for GRK2/GAPDH / GRK2 Adj. Vol. (Int): +dox. An excerpt: (§3) To test whether the Grk2 sgRNAs act through targeting Grk2, and to test whether the anti-proliferative effect results from loss of the Grk2 kinase activity, Grk2 sgRNA expressing PAXF1657 cell lines overexpressing Cas9/sgRNA-cleavage-resistant Grk2 wild-type or kinase-dead cDNA constructs were generated. Re-expression of Cas9/sgRNA-cleavage-resistant Grk2 wild-type or kinase-dead cDNA constructs led to increased Grk2 protein levels, as measured by Western Blot analysis and shown in Table 18.
(In general: A western blot detects proteins with antibodies after separation by electrophoresis.)

Another series has as its system PAXF1657 cells. Nature of the series: Growth (RFP/GFP ratio) of sgGrk2 PAXF1657 lines re-expressing Grk2 wild-type or kinase-dead cDNA. As to conditions: for sgRNA-induced growth inhibition on re-expression of Grk2 wild-type cDNA: cleavage-resistant Grk2 wild-type cDNA. The method, then: as §2, §3
Series [5] concerns sgGrk2-expressing PAXF1657 cells. The series is described as follows: Colony formation assay in sgGrk2-expressing cells (target specificity). The settings on record: PAXF1657, DMSO treatment; for Rel +dox: sgRNA induced (+dox). The method, then:
To assess the target specificity of the GRK2 small molecule antagonist of Formula III-26, sgGRK2-expressing cells were treated with the compound of Formula III-26. If GRK2 knockout is complete and the compound of Formula III-26 inhibits only GRK2, the addition of the compound of Formula III-26 should not induce any additional growth defect compared to sgRNA KO alone. […] This is potentially due to the lower GRK2 knockout efficiency that can be achieved in PAXF1657 compared to Miapaca2, as shown in Table 16.

In series [6] the test system is PAXF1657 stable clone of GRK2 knockout. The series is described as follows: 7-day CellTiter-Glo anti-proliferative assay. The settings on record: PAXF1657, sgGRK2 #2 clonal KO, no cDNA, 10 point dose curve; for GI50: read-out: GI50, geometric mean. The method, then:
as §1

Setting [7] is: PAXF1657, sgNTC, pReceiver-empty vector, 5 or 10 point dose curve.
Setting [8] is: PAXF1657, day 3, 100 ng/ml doxycycline.
Where [9] appears, read: PAXF1657, day 7, 100 ng/ml doxycycline.
[10] abbreviates: PAXF1657, day 10, 100 ng/ml doxycycline.
Setting [11] is: PAXF1657, day 14, 100 ng/ml doxycycline.
Setting [12] is: PAXF1657, day 17, 100 ng/ml doxycycline.
Where [13] appears, read: PAXF1657, day 21, 100 ng/ml doxycycline.

Like-named read-outs stand apart in the source and are kept apart here.

As for `O=C(NCc1cc[nH]n1)c1cc([C@@H]2CCNC[C@H]2COc2ccc3c(c2)OCO3)ccc1F` [Compound of Formula II-26], the Emax in series [1] (setting [7]) stood at 43.3%; in series [2] it was 25.5%. Further, the GI50 (usually the concentration that inhibits growth by half) in series [1] is 1.49 µM; in series [2], greater than 10 µM.

Consider “sgGrk2-3: "sgGrk2-3 (SEQ ID NO: 4)"; "doxycycline inducible sgRNAs targeting GRK2" (guide GCACCCCAGAGAGAACCAGT; expressed or natural sequence)”, for which the figures for the “GRK2/GAPDH normalized to −dox” value in the series on Grk2 protein [3] and in the series on Grk2 protein [4] were 0.28 and −2.47, respectively. In addition, the GRK2/GAPDH ratio with Grk2 protein [3] is 0.16. Further, in the series with Grk2 protein [3], the “GRK2 Avg. Intensity” value is recorded as 2,026,964.66. The “RFP/GFP ratio +dox normalized to RFP/GFP ratio −dox” value in the series on PAXF1657 (setting [8]) came out at 0.92; in the series with PAXF1657 (setting [9]), 0.83; in the series with PAXF1657 (setting [10]), 0.64; in the series on PAXF1657 (setting [11]), 0.44; in the series with PAXF1657 (setting [12]), 0.27; in the series with PAXF1657 (setting [13]), 0.24. In addition, the GRK2/GAPDH in the series on Grk2 protein [4] was −0.04. For the same compound, the “GRK2 Adj. Vol. (Int)” value with Grk2 protein [4] is given as −514,147.69. For the same compound, in the series with PAXF1657 cells, the “sgRNA-induced growth inhibition on re-expression of Grk2 wild-type cDNA” value is listed as “less efficient”. In addition, the “Difference between rel +dox and −dox signal” value in series [5] is 0.36. Besides, the “Rel +dox” value in series [5] came out at 0.64.

Regarding `O=C(NCc1[nH]nc2ccccc12)c1cc([C@@H]2CCNC[C@H]2COc2ccc3c(c2)OCO3)ccc1F` [Compound of Formula II-35], the 50% growth inhibitory concentration (GI50) in series [1] (setting [7]) was 3.37 µM.

For the compound `Cn1c(CNc2cccc(C(=O)NCc3c(F)cccc3F)c2)nnc1-c1ccncn1` [Compound of Formula III-31], in series [1] (setting [7]), the Emax came to 31.6% and the GI50 is greater than 10 µM. For the same compound, in series [2], the Emax worked out at 29.8% and the GI50 is greater than 10 µM.

In the case of `O=C(NCc1ccccc1C(F)(F)F)c1cccc(NCc2nnc(-c3ccncc3)n2CCO)c1` [Compound of Formula III-54], in series [1] (setting [7]), the Emax stood at 89% and the GI50 was found to be 2.52 µM. Further, in series [2], the Emax amounted to 87.3% and the concentration for 50% growth inhibition (GI50) stood at 2.71 µM.

As for `O=C(NCc1ccccc1C(F)(F)F)c1cccc(NCc2nnc3n2CCOc2cnccc2-3)c1` [Compound of Formula III-55], the values for the Emax in series [1] (setting [7]) and in series [2] were 82.3% and 85.9%, respectively. For the same compound, the 50% growth inhibitory concentration (GI50) is 0.11 µM in series [1] (setting [7]) and 0.17 µM in series [2].

Consider `Fc1ccc([C@@H]2CCNC[C@H]2COc2ccc3[nH]ncc3c2)cc1CNCc1ccn[nH]1` [Compound of Formula II-33], for which, in series [1] (setting [7]), the Emax is 42.7% and the concentration for 50% growth inhibition (GI50) came out at 6.27 µM. In series [2], the Emax worked out at 0% and the GI50 was greater than 10 µM.

As to `COc1ccccc1CNC(=O)c1cccc(NCc2nnc(-c3ccncc3)[nH]2)c1` [Compound of Formula III-28], in series [1] (setting [7]), the Emax turned out to be 76.8% and the 50% growth inhibitory concentration (GI50) came to 0.653 µM. Also, in series [6], the “Maximum % Growth inhibition relative to DMSO, geometric mean” value is on record as 78.8% and the 50% growth inhibitory concentration (GI50) amounted to 17.9 µM. In series [2], the Emax worked out at 64.7% and the GI50 worked out at 14.7 µM.

As for “sgGrk2-2: "sgGrk2-2 (SEQ ID NO: 3)"; "doxycycline inducible sgRNAs targeting GRK2" (guide GGTCCCGGTAGACCACGAAG; expressed or natural sequence)”, the “GRK2/GAPDH normalized to −dox” value is reported as 0.20 in the series with Grk2 protein [3] and −0.24 in the series with Grk2 protein [4]. For the same compound, the GRK2/GAPDH ratio in the series with Grk2 protein [3] is 0.06. In the series with Grk2 protein [3], the “GRK2 Avg. Intensity” value is 2,133,921.03. Besides, the “RFP/GFP ratio +dox normalized to RFP/GFP ratio −dox” value with PAXF1657 (setting [8]) is 1.00; in the series on PAXF1657 (setting [9]), 0.89; in the series on PAXF1657 (setting [10]), 0.76; in the series with PAXF1657 (setting [11]), 0.69; in the series with PAXF1657 (setting [12]), 0.57; with PAXF1657 (setting [13]) it was 0.44. In the series on Grk2 protein [4], the GRK2/GAPDH is given as −0.01. Moreover, the “GRK2 Adj. Vol. (Int)” value in the series on Grk2 protein [4] is on record as −189,385.63. In addition, the “sgRNA-induced growth inhibition on re-expression of Grk2 kinase-dead cDNA” value in the series with PAXF1657 cells (cleavage-resistant Grk2 kinase-dead cDNA) was “did not”. For the same compound, in the series on PAXF1657 cells, the “sgRNA-induced growth inhibition on re-expression of Grk2 wild-type cDNA” value was “reduced the sgRNA-induced growth inhibition”. In addition, in series [5], the “Difference between rel +dox and −dox signal” value is 0.21. The “Rel +dox” value in series [5] came out at 0.79.

For `O=C(NCc1ccccc1)c1cccc(NCc2nnc(-c3ccncc3)[nH]2)c1` [Compound of Formula III-30], in series [1] (setting [7]), the Emax came to 73.1% and the GI50 worked out at 4.91 µM. In addition, in series [6], the “Maximum % Growth inhibition relative to DMSO, geometric mean” value is 63.5% and the GI50 was greater than 30 µM. Moreover, in series [2], the Emax is 65.5% and the GI50 was determined as 3.4 µM.

As to `CCCn1c(CNc2cccc(C(=O)NCc3ccccc3C(F)(F)F)c2)nnc1-c1ccncn1` [Compound of Formula III-35], in series [1] (setting [7]), the Emax is 83.6% and the concentration for 50% growth inhibition (GI50) was 0.68 µM. Moreover, in series [2], the Emax worked out at 81.4% and the GI50 is 0.614 µM.

With `O=C(NCc1c(F)cccc1F)c1cccc(NCc2nnc3n2CCOc2cnccc2-3)c1` [Compound of Formula III-56], the Emax turned out to be 46.5% in series [1] (setting [7]) and 28.3% in series [2]. The GI50 in series [1] (setting [7]) and in series [2] was greater than 10 µM each time.
